Source: patent US9581587B2, “Sperm staining and sorting methods” (INGURAN, LLC, priority 2011, dated 2017)

Columns and labels:
[1] = tested on: sperm; experiment: Split quality, split enhancing dyes at various concentrations and incubation times (Example 10); format: cell-based, bulls; details: for split enhancing effect compared to control: 15, 45, 125 μM, 30-75 minutes, averaged over 8 bulls; for peak to valley ratio, Average 8 bulls: 25 μM yellow food dye No. 6
Protocol: (§1) Eight bulls were collected, including 4 Jersey bulls, 3 Holstein bulls and one mixed dairy-breed. The ejaculates were collected at concentrations ranging from 1700×10^6 sperm/ml to 1100×10^6 sperm/ml and all had progressive motility of a least 60%.
(§2) Sperm from each bull was extended to 160 million per ml with a first buffer, (TALP described in table 1 at a pH 7.4) and stained with 64 μM (164/2 mL) Hoechst 33342 at 34° C. Additionally, Phenol Red, Red Food Dye No. 2, Red Food Dye No. 3, and Red Food Dye No. 4, were each tested as split enhancing dyes in the first buffer at concentrations of 15 μM, 45 μM and 125 μM. For each bull, each concentration of each dye was incubated for periods of 30 minutes, 45 minutes, 60 minutes, and 75 minutes were utilized before a second buffer with an additional dye was applied.
Each sample was then extended in an equal volume of a second buffer which comprised a 5.5 pH modified TALP having 25 μM yellow food dye No. 6 (acting as a dead quenching dye) in addition to the split enhancing dye provided in the first buffer. The second buffer was applied to every sample at 30 minutes, 45 minutes, 60 minutes, and 75 minutes. A control was additionally taken without any split enhancing dye for every bull at every time interval.
(§3) Sorting was performed on a MoFlo SX (Beckman Coulter, USA) in substantially the same manner described in Example 5. After calibration, screen shots of sorting histograms were taken and split quality was measured by peak to valley ratios in the same way described in Example 5 with reference to FIG. 4 and the resulting data, averaged over all 8 bulls, is found in Tables 18-21. Additionally, screen shots of bivariate plots were taken to measure the added dead quenching capacity of the mixed dead quenching and split enhancing dyes.

[2] = tested on: membrane compromised sperm; experiment: Added dead quenching capacity from bivariate plots (Example 10, FIG. 8); format: cell-based, bulls; details: with 25 μM yellow food dye No. 6, red food dye No. 4 at highest tested concentration
Protocol: as §1
as §2, with “applied. […]” for “applied.”
as §3, with “Additionally, screen shots of bivariate plots were taken to measure the added dead quenching capacity of the mixed dead quenching and split enhancing dyes.” left out

[3] = tested on: sperm; experiment: Split quality, red food dye No. 3 as added split enhancing dye (Example 9); format: cell-based, bull; details: with yellow food dye No. 6 or red food dye No. 40 as dead quenching dye
Protocol: A single bull was collected for the Example 9 in the same way described in Example 5. […] The second buffer was additionally treated with concentrations of 25, 50, 100, 150, 300, or 600 μM of red food dye No. 3, as indicated in Table 6. Sorting was performed on a MoFlo SX (Beckman Coulter, USA) in substantially the same manner described in Example 6. After calibration, screen shots of sorting histograms were taken and the split quality was measured in terms of peak to valley ratios in the same way described in Example 5 with reference to FIG. 4 and the resulting data is found in Table 17.

[4] = tested on: membrane compromised sperm; experiment: Dead gate intensity divided by live gate intensity, flow cytometer (Example 5); format: cell-based
Protocol: (§4) A single Jersey bull was collected at an initial sperm concentration 1900×10^6 sperm/ml in a volume of 5 ml. The progressive motility of the sperm was 65% with normal morphologies greater than 65%.
(§5) The entire ejaculate of sperm was suspended in first staining buffer, specifically a 7.4 pH TALP described in TABLE 1, to a concentration of 160×10^6 sperm per mL (determined on nucleocounter) and divided into three aliquots of about 20 mL into 50 mL Falcon tubes and pre-warmed for 10 minutes at 34° C. The DNA selective fluorescent dye, Hoechst 33342, was added and samples were held at 34° C. for 60 minutes. 3 different Hoechst 33342 Stain Levels were used=12 μL, 14 μL and 16 μL per 2 mL (effective concentrations of 48 μM, 56 μM, 64 μM).
(§6) Preparation of the second buffer including the dead quenching dye—A 2 L bag of TALP, described in TABLE 1, was adjusted to pH 5.60 using HCl and then sterile filtered. […] For each of the four dyes tested (R40-red food dye No. 40, Y5—yellow food dye No. 5, Y6—yellow food dye No. 6 and PR—phenol red), an appropriate number of milligrams of each powder was placed in a Erlenmeyer Flask and then an exact amount of TALP pH 5.60 was added to create a 250 μM concentration of the dye. The result was a working TALP stock for each dye with a 100% (125 μM) relative amount of dye 50% relative (62.5 μM) and 20% relative (25 μM) solutions were made by dilution of 100% by TALP pH 5.60.
(§7) Single tubes of stained sperm at each of the three Hoechst 33342 concentrations were treated with TALP pH 5.60 which had no dead quenching dye present. Single tubes using Vitamin B12 (red colored chemical) with stock concentration of 15 μM (12% relative) were tested.
(§8) After this “bulk” staining for 60 minutes, 1 mL aliquots of stained sperm were combined with 1 mL aliquots of the second buffer including the dead quenching dyes. Samples sat for approximately 30 minutes at room temperature before being analyzed on a MoFlo SX (Beckman Coulter, USA) sperm sorting flow cytometer. Event rates were held as close to 13,000 as possible at the point of data acquisition.
(§9) The total number of individual treatments was 42 tubes, each containing 2 mL of stained sample. The alignment of the sorter was established using nuclei and confirmed with live sample from the 50% Red 40 series. Once good alignment was established, each tube was placed on the sorter long enough to establish a stabile dead gate population (about 30 seconds) and then a screenshot was taken and saved as a .jpeg image. This approach of rapidly documenting each sample is used to assure the most consistent alignment between all samples. Realignment of sorter will not cause differences in the intensities of live and dead gate populations but will cause differences in split quality.
(§10) FIG. 4 illustrates an example histogram. The ratio of dead gate intensity divided by live gate intensity is created by dividing the distance “A” by the distance “B” shown as a percentage. Lower values mean higher levels of quenching. The ratio of peak height divided by valley height is created by dividing the distance “C” by the distance “D”. A value of 1.00 means “no split” while higher values mean “better splits”.

[5] = tested on: sperm; experiment: Split quality, height of peak divided by height of valley (Example 5); format: cell-based, Jersey bull; details: Hoechst 16 μL/2 mL
Protocol: as §4, §5, §6, §7, §8, §9, §10

[6] = tested on: membrane compromised sperm; experiment: Dead gate intensity, yellow 5 and phenol red at higher concentrations (Example 6); format: cell-based, Jersey bull; details: for Intensity: Hoechst 12 μL/2 mL
Protocol: (§11) A single Jersey bull was collected at an initial sperm concentration 1810×10^6 sperm/ml in a volume of 3.9 ml. The progressive motility of the sperm was 65% with normal morphologies greater than 50%.
(§12) Sperm were suspended at 320 million per mL in 30 mL a first buffer, (TALP described in table 1 at a pH 7.4) with 12 μL of Hoechst 33342 per 2 mL (48 μM) of stain and incubated for 1 hour at 34° C. Stained sperm was then placed as 1 mL aliquots in sample tubes and a 1 mL volume of the appropriate TALP was added. The same second buffer was used as example 1, namely a modified 5.60 pH TALP.
(§13) Each of the stained samples was sorted on a MoFlo SX (Beckman Coulter, USA) as described in Example 6. Screen shots were taken and the dead gate intensity and the split quality were measured in the same way described in Example 1 and recorded in TABLE 14.

[7] = tested on: sperm; experiment: Split quality PV (Example 6); format: cell-based, Jersey bull; details: Hoechst 12 μL/2 mL, resulting pH 6.70
Protocol: as §11, §12, §13

[8] = tested on: sperm; details: as dead quenching dye; cited from earlier work
[9] = split enhancing dye 125 μM, 30 Min

Cc1c(C(=O)O)c(O)cc2c1C(=O)c1c(O)c(C3O[C@H](CO)[C@@H](O)[C@H](O)[C@H]3O)c(O)c(O)c1C2=O (stereo in doubt) [Red 4, carmine]
split enhancing effect compared to control [1]: provides distinct improvements at all concentrations and at all times | dead quenching capacity in combination with dead quenching dye [2]: significant increase in quenching the dead subpopulation

O=S(=O)([O-])c1ccc2c(N=Nc3ccc(S(=O)(=O)[O-])c4ccccc34)c(O)c(S(=O)(=O)[O-])cc2c1.[Na+].[Na+].[Na+] [Red 2]
split enhancing effect compared to control [1]: did not provide a split enhancing, or noise reducing effect | peak to valley ratio, Average 8 bulls ([1]; split enhancing dye 45 μM, 30 Min): 1.00 | peak to valley ratio, Average 8 bulls [1, 9]: 1.00 | peak to valley ratio, Average 8 bulls ([1]; split enhancing dye 125 μM, 45 Min): 1.00 | peak to valley ratio, Average 8 bulls ([1]; split enhancing dye 125 μM, 60 Min): 1.00 | peak to valley ratio, Average 8 bulls ([1]; split enhancing dye 125 μM, 75 Min): 1.00 | dead quenching capacity in combination with dead quenching dye [2]: strong dead quenching capacity

O=C(O)c1ccccc1-c1c2cc(I)c(=O)c(I)c-2oc2c(I)c(O)c(I)cc12 [Red 3, 2-(6-Hydroxy-2,4,5,7-tetraiodo-3-oxo-xanthen-9-yl)benzoic acid]
effect of increasing concentration on split quality [3]: improved the split quality up to the concentration of 300 μM | split enhancing effect compared to control [1]: provided initial split enhancements at 15 μM and 45 μM | peak to valley ratio, Average 8 bulls [1, 9]: 1.00

O=C([O-])C1=NN(c2ccc(S(=O)(=O)[O-])cc2)C(=O)/C1=N/Nc1ccc(S(=O)(=O)[O-])cc1.[Na+].[Na+].[Na+] [Yellow 5, Trisodium (4E)-5-oxo-1-(4-sulfonatophenyl)-4-[(4-sulfonatophenyl)hydrazono]-3-pyrazolecarboxylate]
Dead Intensity ([4]; dye 25 μM, Average over Hoechst levels): 90% | Dead Intensity ([4]; dye 25 μM, Hoechst 12 μL/2 mL): 90% | Dead Intensity ([4]; dye 25 μM, Hoechst 14 μL/2 mL): 90% | Dead Intensity ([4]; dye 25 μM, Hoechst 16 μL/2 mL): 90% | Dead Intensity ([4]; dye 62.5 μM, Average over Hoechst levels): 74% | Dead Intensity ([4]; dye 62.5 μM, Hoechst 12 μL/2 mL): 74% | Dead Intensity ([4]; dye 62.5 μM, Hoechst 14 μL/2 mL): 77% | Dead Intensity ([4]; dye 62.5 μM, Hoechst 16 μL/2 mL): 70% | Dead Intensity ([4]; dye 125 μM, Average over Hoechst levels): 57% | Dead Intensity ([4]; dye 125 μM, Hoechst 12 μL/2 mL): 54% | Dead Intensity ([4]; dye 125 μM, Hoechst 14 μL/2 mL): 63% | Dead Intensity ([4]; dye 125 μM, Hoechst 16 μL/2 mL): 55% | ability to create a dead gate population (ordering of the four dyes) ([4]; from dead and live intensity data of Table 13): better quenching properties than phenol red | Height of Peak/Height of Valley ([5]; dye 25 μM): 1.00 | Height of Peak/Height of Valley ([5]; dye 62.5 μM): 1.00 | amount of dye needed for a similar dead gate intensity ratio as red food dye No. 40 and yellow food dye No. 6 [6]: about five | Intensity ([6]; dye 125 μM, resulting pH 6.70): 63% | Intensity ([6]; dye 250 μM, resulting pH 6.70): 48% | Intensity ([6]; dye 500 μM, resulting pH 6.70): 43% | Intensity ([6]; dye 750 μM, resulting pH 6.70): <30% | Intensity ([6]; dye 875 μM, resulting pH 6.70): <30% | Intensity ([6]; dye 1250 μM, second buffer pH 5.60, resulting pH 6.70): <30% | PV ([7]; dye 125 μM): 1.00 | PV ([7]; dye 250 μM): 1.00 | PV ([7]; dye 500 μM): 1.00 | PV ([7]; dye 750 μM): 1.00 | PV ([7]; dye 875 μM): 1.00 | PV ([7]; dye 1250 μM): 1.00

CC[N+](C)(CC)CCC[n+]1c(-c2ccccc2)c2cc(N)ccc2c2ccc(N)cc21.[I-].[I-] [propidium iodine]
toxicity to sperm [8]: toxic to sperm
